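At the GI50, growth is halved. TGI denotes the concentration required for complete inhibition of growth.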
What was measured:
Assay in all cases: NCI anticancer screen, dose series, 384-well format
[1] = system: MOLT-4 leukemia
[2] = system: CAKI-1 renal
[3] = system: HCT-15 colon
[4] = system: IGROV1 ovarian
[5] = system: COLO 205 colon
[6] = system: LOX IMVI melanoma
[7] = system: SK-MEL-2 melanoma
[8] = system: SF-539 CNS
[9] = system: ACHN renal
[10] = system: EKVX NSCLC
[11] = system: SW-620 colon
[12] = system: MDA-MB-468 breast
[13] = system: SK-OV-3 ovarian

Work on O=c1[nH]nc2c3c(cccc13)NC(CN1Cc3ccccc3C1)=N2 yielded a GI50 [1] of 2.5 µM, a TGI [1] of 7.73 µM and a GI50 [2] of 2.03 µM. For the same molecule, the TGI [2] was > 100 µM, the GI50 [3] was 8.44 µM and the TGI [3] was > 100 µM. For the same molecule, the GI50 [4] was 3.55 µM, the TGI [4] was 70.6 µM and the GI50 [5] was 5.51 µM. For the same molecule, the TGI [5] was > 56.2 µM, the GI50 [6] was 6.61 µM and the TGI [6] was > 61.4 µM. The GI50 [7] was > 87.1 µM, the TGI [7] was > 100 µM and the GI50 [8] was 20.9 µM. The TGI [8] was > 100 µM, the GI50 [9] was 5.5 µM and the TGI [9] was > 78.1 µM. The GI50 [10] was 3.1 µM, the TGI [10] was > 100 µM and the GI50 [11] was 8.37 µM. The TGI [11] was > 100 µM, the GI50 [12] was 2.22 µM and the TGI [12] was 9.99 µM. For the same molecule, the GI50 [13] was 3.49 µM and the TGI [13] was > 62.2 µM.

Reference: PubChem BioAssay (NCI)
